Laboratory results taken from patent US9839681B1, “Size tunable microbial mimetics for immunotherapy of cancer” (priority 2017, dated 2017).

Tested on: Human peripheral blood mononuclear cells (PBMCs)
Assay: Induced cytokine secretion by PBMCs exposed for 24 hours, ELISA
Type: cell-based
Conditions: 25 μg/mL, 24 hours, 300,000 PBMCs per well
Procedure: FIG. 10 is bar graph showing the induced secretion of IL-6 by PBMCs exposed to PolyIC, RNA248, DNA4, DNA10, PolyIC complexed with SEQ. ID NO. 4 (CAL2), RNA248 complexed with SEQ. ID NO. 4, DNA4 complexed with SEQ. ID NO. 4, DNA10 complexed with SEQ. ID NO. 4, DNA4 and RNA248 complexed with SEQ. ID NO. 4, Pam(2)CSK4-conjugated SEQ. ID NO. 4 complexed with DNA4 and SEQ. ID NO. 4 alone. Each well contained ˜300,000 fresh PBMCs in a total volume of 100 μL of RPMI medium. Solutions of SEQ. ID NO. 4, PolyIC, DNA4, DNA10, Pam(2)CSK4-conjugated SEQ. ID NO. 4 were all pre-mixed to concentrations of 50 ug/mL (for each peptide reagent) and then added to wells in volumes of 100 uL, such that each well contained a 200 uL volume of PBMCs and reagents. Wells were run in triplicate and the mean value is indicated.
A series of in vitro experiments was conducted to characterize the immune-stimulating properties of the MM and their sub-components. Human peripheral blood mononuclear cells (PBMCs) were exposed to a MM containing SEQ. ID NO. 4 and its individual molecular sub-components for 24 hours. For reference, the PBMCs were separately exposed to PolyIC. After this time, the induced secretion of following cytokines by PBMCs was measured: interleukin-6 (IL-6), interleukin-10 (IL-10), interleukin-12 (IL-12), interleukin-15 (IL-15), tumor necrosis factor alpha (TNF-alpha), interferon-alpha (IFN-alpha), and interferon-gamma (IFN-gamma). Experiments were conducted as follows. 150 mL of blood was supplied by a human volunteer and PBMCs were isolated by Ficoll-Paque gradient centrifugation immediately after venipuncture. PBMCs were incubated for 24 hours at 37° C./5% CO2 in 96-well plates, with 300,000 PBMCs per well in a 200 μL medium containing 49% RPMI-1640/49% PBS/1% L-glutamine/1% penicillin-streptomycin and the components in Table 3 at a concentration of 25 μg/mL. All cytokines were measured in triplicate.
After 24 hours, the supernatant from each well was isolated using centrifugation at 3000 g and immediately thereafter cytokines were measured using ELISA kits from Genway Biotech (San Diego, Calif.) and Origene (Rockville, Md.). Per ELISA kit instructions, 100 μL of supernatant was used for each readout. The results are provided in FIGS. 10-16, where the mean of each measurement is provided. (In no instance did the standard deviation exceed 30%.)

Substance	cytokine secretion overall (seven cytokines measured)	induced secretion of IFN-alpha	induced secretion of IL-12	induced secretion of IL-15
5′-TCGTCGGTTTCGGCGCGCGCCG-3′ (DNA, all phosphorothioate, methylation of C not given here) [DNA4]	minimal cytokine secretion	somewhat immunogenic	does not induce secretion of high amounts	does not induce secretion of high amounts
5′-TTCGGCGCGCGCGCGCGCGCGCCGTT-3′ (DNA, all phosphorothioate, methylation of C not given here) [DNA10]	minimal cytokine secretion	–	–	–
5′-guuggugguugugugagcgu-3′ (GUUGGUGGUUGUGUGAGCGU; listed as RNA, chemistry not fully specified) [RNA248]	minimal cytokine secretion	–	–	–
RRHRKRRLSTCMLGTYTQDFNKFHTFPQTAI (Linker Sequence + synthetic peptide corresponding to calcitonin) [CAL2]	very minimal cytokine secretion	–	–	–
